Target: 3-phosphoinositide-dependent protein kinase 1 (PDPK1) (Homo sapiens) (UniProt O15530)
Assay: Inhibition of PDK1

IC50 [µM] | SMILES
> 10 | CN1CCN(c2ccc(OC(F)(F)F)c(Nc3nccc(-c4cc5c(n4C)CCNC5=O)n3)c2)CC1
> 10 | CN1CCN(c2ccc(OC(F)(F)F)c(Nc3nccc(-c4cc(C(N)=O)cn4C)n3)c2)CC1
